Experimental data taken from patent EP0193189A1, “Novel compound, its production and insecticidal and acaricidal composition containing it as an active ingredient” (SUMITOMO CHEMICAL COMPANY, LIMITED, priority 1985, dated 1986).
≈ marks a conversion by molar mass, not a printed value.

test system: brown rice planthoppers (Nila^parvata luqens); test: Test Example 7: spray on potted rice plants, brown rice planthopper, residual effect; format: in vivo; conditions: 20 h; 100 ppm spray, 20 ml/2 pots; residual effect; twenty hours after liberation; read-out: Mortality (%) liberated 4 days after application
Experimental: The emulsifiable concentrates of the following compounds and control compounds obtained according to Formulation example 2 were each diluted with water one thousand times (corresponding to 100 ppm) and each of thus prepared solutions was sprayed at the rate of 20 ml/2 pots to the rice plant seedlings planted in Wagner pots having a surface area of one ten thousandth are. After air-drying, the treated plants were covered with the iron wire cages, and about 15 adults of brown rice planthoppers (Nila^parvata luqens) were liberated thereto. Further, about 15 adults thereof were also liberated thereto 4 days after the application to examine the residual effects. Twenty hours after each liberation, the dead and alive adults were examined to calculate the mortality.

SMILES	mortality at 100 ppm
CCC(C)c1ccccc1OC(=O)NC (stereo not drawn) [(C), BPMC, reference compound]	6%
C=CC(C)(CCCc1ccc(F)c(Oc2ccccc2)c1)c1ccc(OCC)cc1 (stereo not drawn) [(2)]	100%

same assay, conditions: 20 h; 100 ppm spray, 20 ml/2 pots; twenty hours after liberation; read-out: Mortality (%) liberated just after air-drying

SMILES	mortality at 100 ppm
CCC(C)c1ccccc1OC(=O)NC (stereo not drawn) [(C), BPMC, reference compound]	100%
C=CC(C)(CCCc1ccc(F)c(Oc2ccccc2)c1)c1ccc(OCC)cc1 (stereo not drawn) [(2)]	100%

test system: carmine spider mite (Tetranychus cinnabarinus); test: Test Example 8: carmine spider mite on potted kidney bean, degree of damage; format: in vivo; design: key: -: No damage is observed.; +: Slight damage is observed.; ++: The same damage as in the untreated plot is observed; conditions: 500 ppm spray 10 ml/pot plus 2 ml soil treatment; after 8 days
Experimental: The female adults of carmine spider mite (Tetranychus cinnabarinus) were put at a rate of 10 adults/leaf on the leaves of potted kidney bean (at the primordial leaf stage) which had elapsed 7 days after sowing, and placed in a constant-temperature room kept at 25°C. After 6 days, the 200-fold aqueous dilute solutions (corresponding to 500 ppm), prepared from the emulsifiable concentrates of the following present compounds and control compounds prepared according to Formulation example 2, were each sprayed at a rate of 10 ml/pot on a turn table. At the same time, the soil in the pot was treated with 2 ml of each aqueous solution. After 8 days, the degree of damage of the plant by the mite was examined.
Criteria of the effect: • - : No damage is observed. • + : Slight damage is observed. • ++: The same damage as in the untreated plot is observed.

SMILES	Degree of damage
Cc1cc(Cl)ccc1N=CN(C)C [(E), Chlordimeform, reference compound]	- ~ +
C#CC(C)(CCCc1ccc(F)c(Oc2ccccc2)c1)c1ccc(C(F)(F)F)cc1 (stereo not drawn) [(13)]	-
C#CC(C)(CCCc1cccc(Oc2ccccc2)n1)c1ccc(OCC)cc1 (stereo not drawn) [(18), 3-(4-ethoxyphenyl)-3-methyl-6-(6-phenoxypyridin-2-yl)-l-hexyne]	- ~ +

test system: houseflies (Musca domestica) of WHO strains; test: Test Example 6: housefly filter paper and sucrose bait test; format: in vivo; conditions: 0.7 ml on filter paper with sucrose bait, adult females, after 48 hours, read-out: LC50 value (ppm)
Experimental: On the bottom of a polyethylene cup of 5.5 cm- in diameter was placed a piece of filter paper of the same size as the bottom, and 0.7 ml of a test solution, prepared by diluting the emulsifiable concentrates of the following present compounds and control compounds prepared according to Formulation example 2 to a prescribed concentration with water, was added dropwise to the filter paper. Thirty milligrams of sucrose were uniformly placed on the filter paper as bait. Thereafter, 10 adult female houseflies (Musca domestica) of WHO strains were liberated in the cup, which was then covered with a lid. After 48 hours, the dead and alive were examined to obtain LC50 value (50% lethal concentration) (two replications).

SMILES	LC50
C#CC(C)(CCCc1ccc(F)c(Oc2ccccc2)c1)c1ccc2c(c1)OCO2 (stereo not drawn) [(12)]	13 µg/mL (≈ 32.3 µM)
C#CC(C)(CCCc1ccc(F)c(Oc2ccccc2)c1)c1ccc(OC)cc1 (stereo not drawn) [(5)]	13 µg/mL (≈ 33.5 µM)
C#CC(C)(CCCc1ccc(F)c(Oc2ccccc2)c1)c1ccc(OC(F)F)c(Cl)c1 (stereo not drawn) [(27)]	11 µg/mL (≈ 24 µM)
C#CC(C)(CCCc1ccc(F)c(Oc2ccccc2)c1)c1ccc(C(F)(F)F)cc1 (stereo not drawn) [(37)]	13 µg/mL (≈ 30.5 µM)
C#CC(C)(CCCc1ccc(F)c(Oc2ccc(F)cc2)c1)c1ccc(OCC)cc1 (stereo not drawn) [(38)]	14 µg/mL (≈ 33.3 µM)

test system: tobacco cutworms (Spodoptera litura); test: Test Example 2: tobacco cutworm larvae on treated artificial feed; format: in vivo; conditions: 150 ppm solution, 2 ml in 13 g artificial feed; 4th instar larvae; six days after; 8640 min
Excerpt: The emulsifiable concentrates of the following present compounds obtained according to Formulation example 2 were each diluted with water to obtain respective 667 times dilution aqueous solutions (corresponding to 150 ppm) containing said compounds, respectively. Two ml of thus diluted solutions were impregnated into the artificial feeds (13 g) for tobacco cutworms (Spodoptera litura) and thus prepared feeds were placed in polyethylene cups of 11 cm in diameter, respectively. Ten of the 4th instar larvae were liberated thereon.
Six days after, the dead and alive of the larvae were examined to calculate the mortality (two replications).

SMILES	Mortality (%)
C#CC(C)(CCCc1ccc(F)c(Oc2ccccc2)c1)c1ccc(C(F)(F)F)cc1 (stereo not drawn) [(37)]	100%

same assay, conditions: Spodoptera litura, 144 h; 150 ppm solution, 2 ml in 13 g artificial feed; 4th instar larvae; six days after; read-out: Mortality (%)

SMILES	mortality at 150 ppm
C#CC(CC)(CCCc1ccc(F)c(Oc2ccccc2)c1)c1ccc(OCC)cc1 (stereo not drawn) [(29)]	100%
C#CC(C)(CCCc1cccc(Sc2ccccc2)c1)c1ccc(OCC)cc1 (stereo not drawn) [(22)]	100%
C#CC(C)(CCCc1cccc(Oc2ccccc2)c1)c1ccc(CC)cc1 (stereo not drawn) [(23)]	100%
C#CC(C)(CCCc1cccc(Oc2ccccc2)n1)c1ccc(OC)cc1 (stereo not drawn) [(44), 3-(4-methoxyphenyl)-3-methyl-6-(6-phenoxy-pyridin-2-yl)-l-hexyne]	100%
C#CC(CCCC)(CCCc1ccc(F)c(Oc2ccccc2)c1)c1ccc(OCC)cc1 (stereo not drawn) [(42)]	100%
C#CC(C)(CCCc1ccc(F)c(Oc2ccccc2)c1)c1ccc(Cl)cc1 (stereo not drawn) [(10)]	100%
C#CC(C)(CCCc1ccc(F)c(Oc2ccccc2)c1)c1ccc2c(c1)OCO2 (stereo not drawn) [(12)]	100%
C#CC(C)(CCCc1ccc(F)c(Oc2ccccc2)c1)c1ccc(OC)cc1 (stereo not drawn) [(5)]	100%
C#CC(C)(CCCc1ccc(F)c(Oc2ccccc2)c1)c1ccc(C(F)(F)F)cc1 (stereo not drawn) [(13)]	100%
C=CC(C)(CCCc1ccc(F)c(Oc2ccccc2)c1)c1ccc(OCC)cc1 (stereo not drawn) [(2)]	100%
C#CC(C)(CCCc1cccc(Oc2ccccc2)n1)c1ccc(OCC)cc1 (stereo not drawn) [(18), 3-(4-ethoxyphenyl)-3-methyl-6-(6-phenoxypyridin-2-yl)-l-hexyne]	100%
C#CC(C)(CCCc1ccc(F)c(Oc2ccc(F)cc2)c1)c1ccc(OCC)cc1 (stereo not drawn) [(38)]	100%

test system: resistant strain of green rice leafhopper (Nephotetix cincticeps); test: Test Example 3: rice seedling dip test, resistant green rice leafhopper; format: in vivo; conditions: Nephotettix cincticeps, 24 h, rice seedlings dipped 1 minute; adults of resistant strain; after one day; read-out: LC50 value (ppm)
Experimental: The emulsifiable concentrates of the following present compounds and control compounds obtained according to Formulation example 2 were each diluted with water to a prescribed concentration, and rice seedlings (about 12 cm in length) were dipped for 1 minute in the resulting aqueous dilute solutions. After air-drying, the seedlings were placed in test tube, and 10 adults of a resistant strain of green rice leafhopper (Nephotetix cincticeps) were liberated in the tube. After one day, the dead and alive of the adults were examined to obtain LC50 (50% lethal concentration)(two replications).

SMILES	LC50
C#CC(C)(CCCc1cccc(Sc2ccccc2)c1)c1ccc(OCC)cc1 (stereo not drawn) [(22)]	90 µg/mL (≈ 225 µM)
CCC(C)c1ccccc1OC(=O)NC (stereo not drawn) [(C), BPMC, reference compound]	190 µg/mL (≈ 917 µM)
C#CC(C)(CCCc1cccc(Oc2ccccc2)c1)c1ccc(CC)cc1 (stereo not drawn) [(23)]	40 µg/mL (≈ 109 µM)
C#CC(C)(CCCc1ccc(F)c(Oc2ccccc2)c1)c1ccc(Cl)cc1 (stereo not drawn) [(10)]	32 µg/mL (≈ 81.4 µM)
C#CC(C)(CCCc1ccc(F)c(Oc2ccccc2)c1)c1ccc2c(c1)OCO2 (stereo not drawn) [(12)]	63 µg/mL (≈ 157 µM)
C#CC(C)(CCCc1ccc(F)c(Oc2ccccc2)c1)c1ccc(OC)cc1 (stereo not drawn) [(5)]	56 µg/mL (≈ 144 µM)
C#CC(C)(CCCc1ccc(F)c(Oc2ccccc2)c1)c1ccc(C(F)(F)F)cc1 (stereo not drawn) [(13)]	10 µg/mL (≈ 23.4 µM)
C#CC(C)(CCCc1ccc(F)c(Oc2ccccc2)c1)c1ccc(OC(F)F)c(Cl)c1 (stereo not drawn) [(27)]	31 µg/mL (≈ 67.6 µM)
C=CC(C)(CCCc1ccc(F)c(Oc2ccccc2)c1)c1ccc(OCC)cc1 (stereo not drawn) [(2)]	80 µg/mL (≈ 198 µM)
C#CC(C)(CCCc1ccc(F)c(Oc2ccc(F)cc2)c1)c1ccc(OCC)cc1 (stereo not drawn) [(38)]	1.9 µg/mL (≈ 4.52 µM)

test system: common mosquito (Culex pipiens pallens); test: Test Example 1: common mosquito larvae in diluted emulsifiable concentrate, mortality and emergence inhibition; format: in vivo; conditions: 3.5 ppm; 20 last instar larvae; after one day; 1440 min
Experimental: The emulsifiable concentrates of the following present compounds obtained according to Formulation example 2 were each diluted with water so as to obtain respective aqueous solutions containing 3.5 ppm of said compounds, respectively. One hundred ml of thus diluted aqueous solutions were poured into respective polyethylene cups of 180 ml volume, and 20 of the last instar larvae of common mosquito (Culex pipiens pallens) were liberated thereto. After one day, the dead or alive of the larvae were examined.
Thereafter, the feed was added to respective cups and the number of emerged pupae of the respective cups was counted when all the pupae of no treatment group had emerged to calculate the inhibitory ratios of the emergence.
The mortality and the inhibitory ratio of the emergence are shown according to the following three criteria: • mortality: A; 90% or more, • B; less than 90% to 10%, • C; less than 10%. • inhibitory: A; 90% or more, ratio of • emergence B; less than 90% to 80% • C; less than 80%.

SMILES	Mortality
C#CC(C)(CCCc1ccc(F)c(Oc2ccccc2)c1)c1ccc(C(F)(F)F)cc1 (stereo not drawn) [(37)]	A (90% or more)

same assay, conditions: 3.5 ppm; counted when all pupae of no treatment group had emerged

SMILES	Inhibitory ratio of emergence
C#CC(C)(CCCc1ccc(F)c(Oc2ccccc2)c1)c1ccc(C(F)(F)F)cc1 (stereo not drawn) [(37)]	A (90% or more)

same assay, conditions: Culex pipiens, 24 h; 3.5 ppm; 20 last instar larvae; after one day; read-out: Mortality

SMILES	mortality at 3.5 ppm
C#CC(CC)(CCCc1ccc(F)c(Oc2ccccc2)c1)c1ccc(OCC)cc1 (stereo not drawn) [(29)]	> 90%
C#CC(C)(CCCc1cccc(Sc2ccccc2)c1)c1ccc(OCC)cc1 (stereo not drawn) [(22)]	10 to 90%
C#CC(C)(CCCc1cccc(Oc2ccccc2)c1)c1ccc(CC)cc1 (stereo not drawn) [(23)]	> 90%
C#CC(C)(CCCc1cccc(Oc2ccccc2)n1)c1ccc(OC)cc1 (stereo not drawn) [(44), 3-(4-methoxyphenyl)-3-methyl-6-(6-phenoxy-pyridin-2-yl)-l-hexyne]	10 to 90%
C#CC(CCCC)(CCCc1ccc(F)c(Oc2ccccc2)c1)c1ccc(OCC)cc1 (stereo not drawn) [(42)]	10 to 90%
C#CC(C)(CCCc1ccc(F)c(Oc2ccccc2)c1)c1ccc(Cl)cc1 (stereo not drawn) [(10)]	> 90%
C#CC(C)(CCCc1ccc(F)c(Oc2ccccc2)c1)c1ccc2c(c1)OCO2 (stereo not drawn) [(12)]	> 90%
C#CC(C)(CCCc1ccc(F)c(Oc2ccccc2)c1)c1ccc(OC)cc1 (stereo not drawn) [(5)]	> 90%
C#CC(C)(CCCc1ccc(F)c(Oc2ccccc2)c1)c1ccc(C(F)(F)F)cc1 (stereo not drawn) [(13)]	> 90%
C#CC(C)(CCCc1ccc(F)c(Oc2ccccc2)c1)c1ccc(OC(F)F)c(Cl)c1 (stereo not drawn) [(27)]	10 to 90%
C=CC(C)(CCCc1ccc(F)c(Oc2ccccc2)c1)c1ccc(OCC)cc1 (stereo not drawn) [(2)]	> 90%
C#CC(C)(CCCc1cccc(Oc2ccccc2)n1)c1ccc(OCC)cc1 (stereo not drawn) [(18), 3-(4-ethoxyphenyl)-3-methyl-6-(6-phenoxypyridin-2-yl)-l-hexyne]	> 90%
C#CC(C)(CCCc1ccc(F)c(Oc2ccc(F)cc2)c1)c1ccc(OCC)cc1 (stereo not drawn) [(38)]	> 90%

same assay, conditions: Culex pipiens; 3.5 ppm; counted when all pupae of no treatment group had emerged; read-out: Inhibitory ratio of emergence

SMILES	pest or weed control at 3.5 ppm
C#CC(CC)(CCCc1ccc(F)c(Oc2ccccc2)c1)c1ccc(OCC)cc1 (stereo not drawn) [(29)]	> 90%
C#CC(C)(CCCc1cccc(Sc2ccccc2)c1)c1ccc(OCC)cc1 (stereo not drawn) [(22)]	> 90%
C#CC(C)(CCCc1cccc(Oc2ccccc2)c1)c1ccc(CC)cc1 (stereo not drawn) [(23)]	> 90%
C#CC(C)(CCCc1cccc(Oc2ccccc2)n1)c1ccc(OC)cc1 (stereo not drawn) [(44), 3-(4-methoxyphenyl)-3-methyl-6-(6-phenoxy-pyridin-2-yl)-l-hexyne]	> 90%
C#CC(CCCC)(CCCc1ccc(F)c(Oc2ccccc2)c1)c1ccc(OCC)cc1 (stereo not drawn) [(42)]	> 90%
C#CC(C)(CCCc1ccc(F)c(Oc2ccccc2)c1)c1ccc(Cl)cc1 (stereo not drawn) [(10)]	> 90%
C#CC(C)(CCCc1ccc(F)c(Oc2ccccc2)c1)c1ccc2c(c1)OCO2 (stereo not drawn) [(12)]	> 90%
C#CC(C)(CCCc1ccc(F)c(Oc2ccccc2)c1)c1ccc(OC)cc1 (stereo not drawn) [(5)]	> 90%
C#CC(C)(CCCc1ccc(F)c(Oc2ccccc2)c1)c1ccc(C(F)(F)F)cc1 (stereo not drawn) [(13)]	> 90%
C#CC(C)(CCCc1ccc(F)c(Oc2ccccc2)c1)c1ccc(OC(F)F)c(Cl)c1 (stereo not drawn) [(27)]	> 90%
C=CC(C)(CCCc1ccc(F)c(Oc2ccccc2)c1)c1ccc(OCC)cc1 (stereo not drawn) [(2)]	> 90%
C#CC(C)(CCCc1cccc(Oc2ccccc2)n1)c1ccc(OCC)cc1 (stereo not drawn) [(18), 3-(4-ethoxyphenyl)-3-methyl-6-(6-phenoxypyridin-2-yl)-l-hexyne]	> 90%
C#CC(C)(CCCc1ccc(F)c(Oc2ccc(F)cc2)c1)c1ccc(OCC)cc1 (stereo not drawn) [(38)]	> 90%
